Source: patent US5428053A, “1-aminoacetamidopyrroles and 1-amino acetamido-2-(substituted) pyrroles and related compounds” (priority 1993, dated 1995)
Where a name gives a salt, the structure may show the parent alone. Read-outs that look alike come from different tables or passages of the source.

What was measured:
[1] = biological target: T1, glycine binding site associated with the N-methyl-D-aspartate (NMDA) receptor complex (Rattus norvegicus, UniProt P35439); assay: biochemical; design: species or system rat (male Wistar, cortex)
T1 construct: Cortices of male Wistar rats are dissected over ice; from tissue; host or cells: cerebral cortex of male Wistar rats, Triton X-100 treated washed membranes
Description: This procedure is a modification of the method described by Monahan et al.^1
1. Buffer A: 0.5M Tris maleate, pH 7.4 59.3 g Tris maleate bring to 0.5 l Adjust pH to 7.4 with 0.5M Tris base
2. Buffer B: 50 mM Tris maleate, pH 7.4 Dilute Buffer A 1:10 with distilled water, adjust pH with 50 mM Tris maleate (acid) or 50 mM Tris base.
3. […] Aliquots of 20 μl to the assay tube will give a final concentration of 10^-3 M.
4. […] Aliquots of 50 μl are added to yield a final assay concentration of 10 nM.
6. Triton-X 100, 10% (v/v). A stock solution of Triton-X 100, 10% can be prepared and stored in the refrigerator. Dilute 1.0 ml of Triton-X 100 to 10.0 ml with distilled water. On the day of the assay, the tissue homogenate (1:15 dilution) is preincubated with an aliquot of the 10% solution to give a final concentration of 0.04% (v/v).
Cortices of male Wistar rats are dissected over ice and homogenized in ice-cold 0.32M sucrose (1:15 w/v) for 30 seconds with a Tissumizer setting at 70. Three cortices are pooled for one preparation. The homogenate is centrifuged at 1,000 g for 10 minutes. The supernatant is centrifuged at 20,000 g for 20 minutes. Resuspend the pellet in 15 volumes of ice-cold distilled water (Tissumizer setting 70, 15 sec) and spin at 7,600 g for 20 minutes. Save the supernatant, swirl off the upper buffy layer of the pellet and add to the supernatant. Centrifuge the supernatant at 48,000 g for 20 minutes. Resuspend the pellet with 15 volumes of cold distilled water and centrifuge. Discard the supernatant and store the pellet at -70° C.
On the day of the assay, resuspend the pellet in 15 volumes ice-cold 50 mM Tris maleate, pH 7.4. Preincubate the homogenate with Triton-X in a final concentration of 0.04% (v/v) for 30 minutes at 37° C. with agitation. Centrifuge the suspension at 48,000 g for 20 minutes. Wash the pellet an additional 3 times by resuspension with cold buffer and centrifugation. The final pellet is resuspended in a volume 25 times the original net weight.
1. Prepare assay tubes in triplicate.
50 μl Buffer A, 0.5M Tris maleate, pH 7.4
or appropriate concentration of inhibitor
500 μl Tissue homogenate
2. Following the addition of the tissue, the tubes are incubated for 20 minutes in an ice-bath at 0°-4° C. Terminate the binding by centrifugation for 20 minutes. Return the tubes to ice. Aspirate and discard the supernatant. Carefully rinse the pellet twice with 1 ml ice-cold buffer, avoiding disruption of the pellet. Transfer the pellet to scintillation vials by vortexing the pellet with 2 ml of scintillation fluid, rinse the tubes twice with 2 ml and add an additional 4 ml of scintillation fluid.
3. […] IC50 values for the competing compound are calculated by log-probit analysis of the data.

[2] = Enhancement of step-down passive avoidance in rats; format: in vivo, rat (male Sprague Dawley); conditions: ip, 30 min prior, 24 hrs after acquisition
Description: In this assay, rats step off a wooden platform and subsequently receive a low-level foot shock. After 24 hours, the rats are observed for their ability to acquire and remember a passive avoidance behavior, that is, to stay on the platform. Male Sprague Dawley rats (Charles River) weighing 275-325 g were used in the passive avoidance procedure. Following a 11/2 week acclimation to the vivarium (5 rats per cage) where food and water were available ad libitum, rats were transported to the laboratory on day 1 of testing and acclimated to the experimental area and the investigator. Rats were labeled (tails marked) and handled by the investigator, then gently placed on a wooden platform (14×10.5×3.5 cm) in the experimental chamber (30.5×25×27 cm.) The chamber is equipped with a single house light and white noise generator to mask extraneous sounds. Once the animal stepped off the platform (all 4 paws touching the grid floor where grids are equally spaced every 2 cm), it was picked up by the base of the tail and returned to the home cage and then to the vivarium. On day 2, rats were returned to the laboratory and again acclimated to the experimental area for 30 min. Rats were intraperitoneally administered vehicle or compounds 30 min. prior to testing in a dosage volume of 1 ml/kg. Then the rats were gently placed on the wooden platform and their latency (in sec.) to step-down was recorded. When all four paws touched the grid, a low level 0.28 mA electric shock was delivered for 3 sec. by means of a Coulbourn Instruments grid floor shocker. Rats were immediately removed from the experimental chamber to their home cage when the shock ceased. […] Fifteen minutes later, this procedure was repeated. Rats were then returned to the vivarium. […] The latencies of each drug group on day 3 (24 hrs. following acquisition) was compared to the latencies of the vehicle control group by the non-parametric Mann-Whitney U test.

[3] = biological target: T2, NMDA associated strychnine-insensitive glycine modulatory site (Rattus norvegicus, UniProt P35439); assay: biochemical; design: species or system rat (male Sprague Dawley, cortical tissue); conditions: for EC50: 2.5 nM [3H]TCP, L-glutamic acid 10^-7 M, read-out: ENHANCEMENT OF [3H]TCP BINDING EC50
T2 construct: cortical tissue obtained from male Sprague Dawley rats; from tissue; host or cells: cortical tissue of male Sprague Dawley rats, crude synaptosomal homogenate, lysed and washed

[4] = T-maze reinforced alternation task in rats (scopolamine-induced deficit); format: in vivo, rat (male Wistar); conditions: i.p.
Description: Male Wistar rats (Charles River) weighing 450-700 g were used in the T-maze procedure. Rats were housed (3 rats per cage) under standard laboratory conditions in the vivarium where food and water were available ad libitum. During training and testing, animals were transported to the dimly lit test room and acclimated for 30 min. The Lafayette Instruments T-maze consisted of a start box (30×20 cm), an alley way to the choice point (30×20 cm), a choice point area (25×25 cm), and two goal areas (30×20 cm) with a shock grid (grids every 11/2 cm) serving as the floor of the maze. Each session in the maze was controlled by a microprocessor.
Initially, animals were trained to greater than 70% choice accuracy in the maze for five consecutive days each week over a two week period. Following a 10 min. habituation to the maze, training commenced. All reinforced alternation sessions consisted of ten pseudo randomly paired trials. The first trial of each pair was the forced trial where the animal was forced to go to either the left or right goal box, since only one goal box door was open. The second trial was the choice trial where both goal box doors were open and the correct response was to enter the opposite goal to that entered on the previous forced run trial.
Each trial began when the rat was placed in the start box and allowed 15 sec. to enter the appropriate goal box. […] Following a 30 sec. intertrial interval (ITI), the next trial commenced. If during the choice trial, the rat entered the incorrect goal box (same goal entered during the forced trial), the guillotine door was closed and the rat received 5 electric shocks during the first 15 sec. of the 30 sec. ITI. All choices and latencies during the 10 paired trials were recorded by the computer controlled printer.
Animals which met criteria during training ([…]) were considered trained colony animals and were tested every other week. Testing was conducted over 3 consecutive days. Control sessions for baseline responding were conducted on days 1 and 2 so that the mean percentage of correct choices for each animal to qualify for drug testing was set at ≥70% correct choices.
The next time these animals were tested, they were administered pharmacological agents i.p. (at appropriate pretreatment times) in combination with scopolamine to measure effectiveness in reversing scopolamine-induced deficits in choice accuracy.
For statistical analysis, the means of each treatment group (drug+scopolamine) were compared to the mean of both the scopolamine alone group and the control group by the Dunnett's test.

[5] = system: NMDA receptor; assay: Stimulation of [3H]TCP binding by NMDA in extensively washed rat cortical membranes; conditions: glycine 1 μM added to NMDA
[6] = read-out: % OF MAXIMAL GLYCINE RESPONSE
[7] = read-out: % OF MAXIMAL GLYCINE RESPONSE, concentration 10 μM

Row | SMILES | IC50 [1] | % Change from Control (median latency to step-down) ([2]; 10 mg/kg) | % Change from Control (median latency to step-down) ([2]; 20 mg/kg) | EC50 [3] | further results
1 | Cl.NCC(=O)Nn1cccc1 [2-Amino-N-1H-pyrrol-1-ylacetamide Hydrochloride] | 14.8 µM | +281% | +625% | 92 µM | % Change from Control (median latency to step-down) ([2]; 80 mg/kg): +512%; Emax at 100 µM [3, 6]: 65%
2 | Cl.NCC(=O)Nn1cccc1Cl [2-Amino-N-(2-chloro-1H-pyrrol-1-yl)acetamide Hydrochloride] |  | +158% | +25% |  | % Change from Control (median latency to step-down) ([2]; 40 mg/kg): +133%
3 | NCC(=O)Nn1cccc1C(=O)c1cccs1 [2-Amino-N-[2-(2-thienylcarbonyl)-1H-pyrrol-1-yl]acetamide Hydrochloride] | 6 µM |  |  | 0.38 µM | Emax at 10 µM [3, 6]: 78%
4 | NCC(=O)Nn1cccc1C(=O)c1ccccc1Cl [2-amino-N-[2-(2-chloro-benzoyl)-1H-pyrrol-1-yl]-acetamide hydrochloride] | 22.5 µM |  |  | 3 µM | Emax at 10 µM [3, 6]: 56%
5 | NCC(=O)Nn1cccc1C(=O)c1ccccc1F [2-amino-N-[2-(2-fluorobenzoyl)-1H-pyrrol-1-yl]acetamide hydrobromide hemihydrate] | 11.2 µM | +471% | +836% | 3.1 µM | Mean % of Correct Choice ([4]; with scopolamine, 1/20 mg/kg (scopolamine/drug)): 64%; Emax at 10 µM [3, 7]: 77%
6 | COc1ccccc1C(=O)c1cccn1NC(=O)CN.Cl [2-amino-N-[2-(2-methoxy-benzoyl)-1H-pyrrol-1-yl]-acetamide hydrochloride] |  | +37% |  |  | % Change from Control (median latency to step-down) ([2]; 1.25 mg/kg): +237%; % Change from Control (median latency to step-down) ([2]; 5 mg/kg): +80%
7 | NCC(=O)Nn1cccc1C(=O)c1ccccc1C(F)(F)F [2-amino-N-[2-(2-trifluoro-methyl)benzoyl)-1H-pyrrol-1-yl]acetamide hydrobromide] |  | +77% | +122% |  | % Change from Control (median latency to step-down) ([2]; 5 mg/kg): +900%; % Change from Control (median latency to step-down) ([2]; 40 mg/kg): +33%
8 | NCC(=O)Nn1cccc1C(=O)c1cccc(F)c1.O=C(O)/C=C/C(=O)O [2-amino-N-[2-(3-fluorobenzoyl)-1H-pyrrol-1-yl]acetamide fumarate] | 4.8 µM | +343% | +257% | 0.6 µM | % Change from Control (median latency to step-down) ([2]; 5 mg/kg): +457%; Emax at 10 µM [3, 7]: 76%
9 | COc1ccc(C(=O)c2cccn2NC(=O)CN)cc1 [2-amino-N-[2-(4-methoxybenzoyl)-1H-pyrrol-1-yl]acetamide] | 6.6 µM |  |  | 2 µM | Emax at 100 µM ([3]; read-out: % OF MAXIMAL GLYCINE RESPONSE, concentration 100 μM): 89%
10 | NCC(=O)Nn1c(Cl)ccc1C(=O)c1ccccc1F [2-amino-N-[5-chloro-2-(2-fluorobenzoyl)-1H-pyrrol-1-yl]acetamide hydrobromide] | 6 µM |  |  | 1.7 µM | Emax at 30 µM ([3]; read-out: % OF MAXIMAL GLYCINE RESPONSE, concentration 30 μM): 65%
11 | N[C@@H]1CONC1=O [D-cycloserine] |  |  |  |  | Mean % of Correct Choice ([4]; with scopolamine, 1/3 mg/kg (scopolamine/drug)): 59%; Mean % of Correct Choice ([4]; with scopolamine, 1/10 mg/kg (scopolamine/drug)): 61%; % Change from Control (median latency to step-down) ([2]; 5 mg/kg): +120%
12 | CC(=O)c1cccn1NC(=O)CN [N-(2-Acetyl-1H-pyrrol-1-yl)-2-aminoacetamide Hydrochloride] | 22.5 µM |  |  | 1.3 µM | Emax at 10 µM [3, 6]: 71%
13 | CN1[C@@H]2C[C@@H](OC(=O)[C@H](CO)c3ccccc3)C[C@H]1[C@@H]1O[C@@H]12 [Scopolamine] |  |  |  |  | choice accuracy (overall responding at chance levels) ([4]; scopolamine 1 mg/kg, 30 min pretreatment): 50%; Mean % of Correct Choice ([4]; scopolamine alone 1 mg/kg): 45%
14 | NCC(=O)O [glycine] |  |  |  |  | potentiation of the maximal effect of NMDA on [3H]TCP binding (factor) [5]: 1.7
